Legend:
[1] = tested on: β-catenin, Claudin-1, E-cadherin, Fibronectin, Snail, TCF8/ZEB1, Vimentin in PANC-1 cells and MIA PaCa-2 cells; assay: Western blot assay of Wnt/EMT biomarkers; type: cell-based; details: PANC-1 and MIA PaCa-2 cells
Description: It is well established that the metastasis of tumors was accompanied by the change of several special proteins. β-catenin is an intracellular signaling molecule primarily involved in the Wnt signaling pathway and regulates cell proliferation and differentiation. The abnormal activation of β-catenin is associated with tumor development and increased invasiveness. Claudin-1 belongs to the tight junction protein family, which maintains the barrier function between cells and is correlated with some cancers’ metastatic ability. E-cadherin is an intercellular adhesion molecule, and its decreased expression is common in the phenotype transition process of cancer cells, such as epithelial-mesenchymal transition (EMT), which is a key step in cancer metastasis. Fibronectin is an extracellular matrix protein involved in cell adhesion and migration, and its expression is often positively associated with cancer’s metastatic ability. Snail and TCF8/ZEB1 both are transcription factors that can inhibit the expression of E-cadherin and promote the EMT process. Vimentin is a marker protein of mesenchymal cells, and its expression increases during EMT, further contribute to the process of metastasis by supporting the structural changes needed for cell migration and invasion. […]
Cells were lysed in RIPA lysis buffer (Solarbio, China). The protein concentration was determined using the BCA assay. […]

PANC-1 xenograft tumor = tested on: PANC-1 xenograft tumor
Method: Furthermore, a xenografted murine subcutaneous tumor model was employed to evaluate the effects of majusculamide D and the optimized analogues 1c and 1n (Figure 1B). PANC1-bearing BALB/c nude mice were separated randomly, with a total of six mice in each group. Gemcitabine was chosen as the positive drug; the mice were then administered intravenous doses of 1c (5 mg/kg), 1n (5 mg/kg), 1a (5 mg/kg), and gemcitabine (20 mg/kg) every other day for 24 days.
A total of 4 × 10^6 PANC-1 cells suspended in 100 μL PBS were subcutaneously injected into the right shoulder region of BALB/c nude mice. When the tumor volume reached approximately 200 mm^3, the mice were euthanized, and the tumor tissues were harvested and designated as F1 generation. Tumor tissues were then cut into small cubes measuring approximately 3 × 3 × 3 mm, which were implanted into new BALB/c mice to propagate the tumors. This procedure was repeated to obtain the F2 generation of tumors. Finally, mice bearing F3 generation transplant tumors were used for drug treatment experiments. When the tumor volume reached approximately 80–100 mm^3, the mice were randomly divided into five groups (n = 6): control group, 5 mg/kg compound 1a group, 5 mg/kg compound 1c group, 5 mg/kg compound 1n group, and 20 mg/kg gemcitabine group. The compounds 1a, 1c, and 1n were dissolved in DMSO and then diluted with 0.9% physiological saline to achieve a final concentration of 0.5 mg/mL as the dosing concentration. Gemcitabine was dissolved directly in 0.9% saline to achieve a final concentration of 2 mg/mL as the dosing concentration. The compounds were administered intravenously every two days, alternating between the left and right tail veins to minimize vein damage. Injections were performed using ultra-fine syringes (30G needles) to reduce stress and ensure consistent delivery. The body weight and tumor volume of the mice were measured every four days. On day 24, the mice were euthanized, and the tumor weights were recorded. Tumor volume (V) was calculated using the formula: V = (ab^2)/2, with “a” representing the long diameter of the tumor and “b” representing the short diameter of the tumor. […] Tumor weight was used to calculate the tumor inhibition rate (Figure 1G).

`CCCCC(C)CC(C)C(=O)N(C)C(Cc1ccc(OC)cc1)C(=O)NC(C(=O)N(C)C(C(=O)N1CC(O)CC1C(=O)N1C(=O)C=CC1C)C(C)C)C(C)OC(C)=O` (stereo not shown) [Compound 1a, Majusculamide D] was tested, and the “expression levels of β-catenin, Fibronectin, Snail, TCF8/ZEB1 and Vimentin” value ([1]; increasing concentrations) was “decreased”, the “expression levels of Claudin-1 and E-cadherin” value ([1]; rising concentrations) was “increased” and the “mortality rate among the mice” value (PANC-1 xenograft tumor; 5 mg/kg i.v. every other day, 24 days, n = 6) was 50%. For the same molecule, the “mice dead in treated group” value (PANC-1 xenograft tumor; 5 mg/kg i.v., xenografted mouse model, six mice per group) was 3 mice, the “tumor inhibition rate (%)” value (PANC-1 xenograft tumor; calculated from tumor weight, day 24, 1a, 1c, 1n 5 mg/kg, gemcitabine 20 mg/kg i.v.) was 64.8% and the tumor weight (PANC-1 xenograft tumor; day 24, i.v. every other day, 1a, 1n 5 mg/kg, gemcitabine 20 mg/kg, mean ± SD) was 0.393 ± 0.049 g. For the same molecule, the tumor volume (PANC-1 xenograft tumor; i.v. every other day for 24 days, 1a, 1n 5 mg/kg, gemcitabine 20 mg/kg, mean ± SD, n = 6) was 353.0 ± 66.7 mm^3.
